Results taken from patent EP1150982B1, “PURINE INHIBITORS OF CYCLIN DEPENDENT KINASE 2 AND IkB-alpha” (CV THERAPEUTICS, INC., priority 1999, dated 2000).
In brackets after ≈: the same amount, converted by molar mass. Read-outs that look alike come from different tables or passages of the source.

Key:
[1] = molecular target: IκB-α kinase; experiment: IκB-α kinase assay (filter assay of affinity enriched IκB-α kinase from LPS-activated HUVEC lysate); format: biochemical, human; details: Table 11, Enzyme Activity of Selected Compounds
[2] = molecular target: CDK2 (Homo sapiens, UniProt P24941); experiment: biochemical; details: concentration required to inhibit CDK2 activity by 50%; 30 µM ATP, histone H1, 30°C for 30 min; read-out: IC50 (µg/mL) enzyme (converted)
Procedure: Compounds of this invention were assayed to determine their CDK2 inhibitory activity. The assay system (total volume of 50 µl) contained 50 mM Tris-HCl, pH 7.4, 10 mM MgCl2, 5 mM DTT, 1 µg of histone H1, 30 µM ATP (1 µCi of gamma^32P labeled ATP), 10 µg of BSA and 1 ng of purified CDK2. After incubation at 30°C for 30 min, the reaction was terminated by the addition of 10 µl of 10% TCA and the samples were blotted onto nitrocellulose filters. These filters were washed extensively in 10% TCA and assayed for radioactivity. Blanks contained no enzyme. […] After incubation at 30 min., the assay tubes were processed as above.

[3] = test system: rat aortic smooth muscle cells; experiment: tissue or blood; format: cell-based; details: read-out: IC50 (µg/mL) cells
Procedure: (§1) Early passage rat aortic smooth muscle cells (CV Therapeutics Cell repository) were seeded in 48 well dishes (Falcon, […]) at a density of 20,000 cells/ml of DME containing 5% heat inactivated bovine serum. The cells were incubated in a standard tissue culture incubator for 48 hr. The medium was aspirated and the wells were replenished with 0.2 ml of fresh medium. […]

[4] = test system: Pancl human pancreatic adenocarcinoma; experiment: Cell proliferation assay, Pancl; format: cell-based; details: Pancl cells, read-out: IC50 (µg/ml) for Inhibition of Cell Proliferation Panel
Procedure: as §1
(§2) Similar assays were performed using the following cell lines: P388 - mouse lymphoid neoplasm; L1210 - mouse lymphocytic leukemia; Caco2 human colon adenocarcinoma; MCF7 human breast adenocarcinoma; PupVSMC rat neonatal aortic smooth muscle cells; Ovcar human ovarian Carcinoma; Pancl human pancreatic adenocarcinoma; and HUVEC human umbilical cord endothelial cells.

[5] = test system: Ovcar human ovarian Carcinoma; experiment: Cell proliferation assay, Ovcar; format: cell-based; details: Ovcar cells, read-out: IC50 (µg/ml) for Inhibition of Cell Proliferation OvC ar
Procedure: as §1, §2

[6] = test system: P388 - mouse lymphoid neoplasm; experiment: Cell proliferation assay, P388; format: cell-based; details: P388 cells, read-out: IC50 (µg/ml) for Inhibition of Cell Proliferation P 388
[7] = test system: PupVSMC rat neonatal aortic smooth muscle cells; experiment: Cell proliferation assay, PupVSMC; format: cell-based
Procedure: (§3) Early passage rat aortic smooth muscle cells (CV Therapeutics Cell repository) were seeded in 48 well dishes (Falcon, […]) at a density of 20,000 cells/ml of DME containing 5% heat inactivated bovine serum. The cells were incubated in a standard tissue culture incubator for 48 hr. The medium was aspirated and the wells were replenished with 0.2 ml of fresh medium. Compounds of this invention were added at concentrations ranging from 100 to 0.37 µg/ml. After 48 hr incubation, the medium was aspirated and the cultures were treated with 0.2 ml of saline and 0.25 µl of phenazine methosulfate solution containing MTS (Cell Titer 96® Aqueous Non-radioactive cell proliferation assay kit, Catalog # G 5430, Promega, 2800 Woods Hollow Road, Madison, WI 53711-5399). […]
as §2

[8] = test system: neointima formation following balloon angioplasty in the rat carotid artery; experiment: Neointima formation following balloon angioplasty, rat carotid artery model; format: in vivo; details: 14 days recovery
Text: In this example, the left common carotid arteries of adult male rats (n=10 per experimental group) were surgically injured using a Fogarty arterial embolectomy catheter. Immediately after injury, the common carotid artery was bisected with a vascular clamp, thereby establishing an untreated and treated segment. A drug delivery catheter was then inserted into the distal half of the common carotid. After drug delivery, the catheter was removed and excess drug was washed out by removing the vascular clamp and re-establishing blood flow before closing the artery. […] The harvested tissue was sectioned and the neointimal area was digitized and measured with a computer planimetry system.

[9] = test system: Caco2 human colon adenocarcinoma; experiment: cells; format: cell-based; details: Caco-2, read-out: IC50 (µg/ml) for Inhibition of Cell Proliferation Caco 2
Procedure: as §3, §2

[10] = test system: L1210 - mouse lymphocytic leukemia; experiment: cells; format: cell-based; details: read-out: IC50 (µg/ml) for Inhibition of Cell Proliferation L 120
Procedure: as §3, §2

[11] = test system: MCF7 human breast adenocarcinoma; experiment: Cell proliferation assay, MCF7; format: cell-based; details: MCF7 cells, read-out: IC50 (µg/ml) for Inhibition of Cell Proliferation MCF 7
Procedure: as §1, §2

[12] = test system: mammalian cells in culture; details: literature; cited from earlier work
[13] = inhibitory activity against the cell line, Table 9, unit inferred, read-out: PupVSMC

Structure (SMILES): CC(C)n1cnc2c(Nc3cccc(-c4ccc(C#N)cc4)c3)nc(N(CCO)CCO)nc21
- IC50 [1]: 2.2 µM

Structure (SMILES): CC(C)n1cnc2c(NCc3ccc(-c4ccccn4)cc3)nc(N(CCO)CCO)nc21
- IC50 [1]: 4.5 µM

Structure (SMILES): COc1cccc(-c2ccc(CNc3nc(N(CCO)CCO)nc4c3ncn4C(C)C)cc2)c1
- IC50 [1]: > 10 µM

Structure (SMILES): COc1ccc(-c2ccc(CNc3nc(N(CCO)CCO)nc4c3ncn4C(C)C)cc2)cc1
- IC50 [1]: 11 µM

Structure (SMILES): CC(C)n1cnc2c(Nc3ccc(Br)cc3)nc(N(CCO)CCO)nc21
- IC50 [1]: 14 µM

Structure (SMILES): COC(=O)c1ccc(Cn2cnc3c(NCc4ccc(OC)cc4)nc(Cl)nc32)cc1
- IC50 [2]: > 137 µM

Structure (SMILES): COc1ccc(CNc2nc(N(CCO)CCO)nc3c2ncn3C(C)C)cc1
- IC50 ([3]; Rattus norvegicus, 48 h): 2.1 µg/mL (≈ 5.24 µM)

Structure (SMILES): COc1ccc(CNc2nc(Cl)nc3c2ncn3C(F)(F)F)cc1
- IC50 [2]: > 168 µM

Structure (SMILES): CCN(CC)c1nc(NCc2ccc(-c3ccccc3)cc2)c2ncn(C(C)C)c2n1
- IC50 [1]: > 2.4 µM

Structure (SMILES): CC(C)n1cnc2c(NCc3ccc(-c4ccccc4)cc3)nc(NCCO)nc21
- IC50 [1]: 2.5 µM

Structure (SMILES): CC(C)n1cnc2c(NCc3ccc(Cl)cc3)nc(N(CCN)CCO)nc21
- IC50 ([3]; concentration required to inhibit cell proliferation by 50%, rat aortic smooth muscle cells, 48 hr incubation, MTS): 0.2 µg/mL (≈ 0.495 µM)

Structure (SMILES): CC(C)n1cnc2c(NCc3ccc(Cl)cc3)nc(NCCNCCO)nc21
- IC50 [2]: 5 µM

Structure (SMILES): CC(C)n1cnc2c(NCc3ccc(S(N)(=O)=O)cc3)nc(NCCN)nc21
- IC50 [2]: 22.2 µM

Structure (SMILES): CC(C)Cn1cnc2c(NCc3ccc(C(F)(F)F)cc3)nc(N(CCO)CCO)nc21
- IC50 [2]: 130 µM

Structure (SMILES): CC(C)n1cnc2c(NCc3ccc(C(F)(F)F)cc3)nc(N(CCO)CCO)nc21
- IC50 [2]: 1.28 µM

Structure (SMILES): COc1ccc(CNc2nc(N3CCOCC3)nc3c2ncn3C(C)C)cc1
- IC50 [4]: 5.5 µg/mL (≈ 14.4 µM)
- IC50 [5]: 4 µg/mL (≈ 10.5 µM)
- IC50 [6]: > 5 µg/mL

Structure (SMILES): CC(C)n1cnc2c(NCc3ccc(Cl)cc3)nc(N(CCN)CCO)nc21 [2-[(2-aminoethyl)(6-{[(4-chlorophenyl)methyl]amino}-9-(methylethyl)purin-2-yl)amino]ethan-1-ol]
- IC50 [7, 13]: 0.3 µg/mL (≈ 0.743 µM)

Structure (SMILES): CC(C)n1cnc2c(NCc3ccc(Cl)cc3)nc(N(CCO)CCO)nc21 [2-[(2-hydroxyethyl)(6-{[(4-chlorophenyl)methyl]amino}-9-(methylethyl)purin-2-yl)amino]ethan-1-ol]
- IC50 [7, 13]: 0.3 µg/mL (≈ 0.741 µM)

Structure (SMILES): CC(C)n1cnc2c(NCc3ccc(-c4ccccc4)cc3)nc(N(CCO)CCO)nc21 [2-diethanolamino-6-(4-phenylbenzylamino)-9-isopropyl purine]
- IC50 [4]: 1.3 µg/mL (≈ 2.91 µM)
- IC50 [1]: 1.1 µM
- IC50 [6]: < 1 µg/mL

Structure (SMILES): Clc1ccc(COc2nc(Cl)nc3[nH]cnc23)cc1 [4-chlorobenzyloxy; H; C1]
- IC50 [2]: 203 µM

Structure (SMILES): Cn1cnc2c(OCc3ccc(Cl)cc3)nc(Cl)nc21 [4-chlorobenzyloxy; Me; C1]
- IC50 [2]: 194 µM

Structure (SMILES): COc1ccc(CNc2nc(Cl)nc3c2ncn3CC(C)C)cc1 [4-methoxybenzylamino; 2-methylpropyl; C1]
- IC50 [2]: 173 µM

Structure (SMILES): COc1ccc(CNc2nc(Cl)nc3[nH]cnc23)cc1 [4-methoxybenzylamino; H; C1]
- IC50 [2]: 207 µM

Structure (SMILES): COc1ccc(CNc2nc(N(CCO)CCO)nc3c2ncn3C(C)C)cc1 [Compound 3, 2-diethanolamino-6-(4-methoxybenzylamino)-9-isopropylarine]
- IC50 [7, 13]: 0.4 µg/mL (≈ 0.999 µM)
- reduced the neointimal area ([8]; Figure 1, acute local delivery, saline vehicle alone 6%): about 88%

Structure (SMILES): CC(C)n1cnc2c(Nc3ccc(-c4ccccc4)cc3)nc(N(CCO)CCO)nc21 [Compound 6, 2-diethanolamino-6-(4-phenylanilino)-9-isopropylpurine]
- IC50 ([7]; VSMC, PupVSMC cells, Table 8, read-out: IC50 (µg/ml) for Inhibition of Cell Proliferation Pup VS MC): 1 µg/mL (≈ 2.31 µM)
- IC50 [9]: 0.5 µg/mL (≈ 1.16 µM)
- IC50 [10]: 4 µg/mL (≈ 9.25 µM)
- IC50 [4]: 4 µg/mL (≈ 9.25 µM)
- IC50 [5]: 7 µg/mL (≈ 16.2 µM)
- IC50 [11]: 4 µg/mL (≈ 9.25 µM)
- IC50 [6]: 1 µg/mL (≈ 2.31 µM)

Structure (SMILES): CSc1ccc(Nc2nc(N(CCO)CCO)nc3c2ncn3C(C)C)cc1 [Compound 6A, 2-diethanolamine-6-(4-methylmercapto) anilino-9-isopropylpurine]
- IC50 [1]: 12.4 µM

Structure (SMILES): Cn1cnc2c(NCc3ccccc3)nc(NCCO)nc21 [olomoucine, 2-(hydroxyethylamino)-6-benzylamino-9-methylpurine]
- inhibits cell proliferation at an approximate concentration [12]: ~50 µg/mL

Structure (SMILES): CC(C)n1cnc2c(NCc3ccc(Cl)cc3)nc(NCCN)nc21 [{2-[(2-aminoethyl)amino]-9-(methylethyl)purin-6-yl}[(4-chlorophenyl)methyl]amine]
- IC50 [7, 13]: 0.1 µg/mL (≈ 0.278 µM)
- reducing the neointimal area ([8]; acute local delivery, dose of 5 mg/mL, saline alone 6%): about 90%

Structure (SMILES): CC(N)CNc1nc(NCc2ccc(Cl)cc2)c2ncn(C(C)C)c2n1 (centres unmarked) [{2-[(2-aminopropyl)amino]-9-(methylethyl)purin-6-yl}[(4-chlorophenyl)methyl]amine]
- IC50 [7, 13]: 0.1 µg/mL (≈ 0.267 µM)
